The values that follow are results of earlier work, collected in paper PMC11756063, “The fibronectin-targeting PEG-FUD imaging probe shows enhanced uptake during fibrogenesis in experimental lung fibrosis” (Respiratory Research, 2025).

The data set has as its system fibrotic mouse lung. To be noted: ref [9], [13], [65]. The text has this: This study has potential impact for the field of molecular imaging of lung fibrosis, as methods that permit more precise and intricate assessment of disease progression are needed in clinical practice. In pulmonary fibrosis, potential molecular imaging targets being developed represent various disease mechanisms, such as activity of pathogenic fibroblasts and macrophages, ECM deposition, as well as detection of pro-fibrotic integrins.

`OC[C@H]1OC(O)[C@H]([18F])[C@@H](O)[C@@H]1O` (stereo partly shown) [[^18F]FDG, [^18F]-fluorodeoxyglucose]: the “pattern of uptake over the bleomycin model” value is “peak uptake in the early phase of the bleomycin model that decline during the established phase”.
